One assay has as its target EGFR (Homo sapiens, UniProt P00533). Description: EGFR kinase inhibition assay. The format is biochemical. As for the experimental part:
(§1) Kinase activity and compound inhibition are investigated using one or more of the three assay formats described below. The ATP concentrations for each assay are selected to be close to the Michaelis-Menten constant (KM) for each individual kinase. Dose-response experiments are performed at 10 different inhibitor concentrations in a 384-well plate format. The data are fitted to four-parameter equation (2) below; where Y is the observed signal, X is the inhibitor concentration, Min is the background signal in the absence of enzyme (0% enzyme activity), Max is the signal in the absence of inhibitor (100% enzyme activity), IC50 is the inhibitor concentration at 50% enzyme inhibition and H represents the empirical Hill's slope to measure the cooperativity. Typically H is close to unity. Y=Min+(Max−Min)/(1+(X/IC50)^H) Equation (2) ^33P Phosphoryl Transfer Assay: […]
(§2) Greiner 384-well white, clear bottom, high binding plates are coated with 2 μg/well of protein or peptide substrate in a 50 μL volume overnight at ambient temperature. The coating buffer typically contains 40 μg/mL substrate, 22.5 mM Na2CO3, 27.5 mM NaHCO3, 150 mM NaCl and 3 mM NaN3. The coating solution is aspirated and the plates are washed once with 50 μL of assay buffer and padded dry. Subsequently compounds and enzymes are mixed with γ^33P-ATP (3.3 μCi/nmol) in a total volume of 20 uL in suitable assay buffers. The mixture is incubated at ambient temperature for 1.5-2.5 hrs and terminated by aspiration using a Molecular Devices EMBLA 96-head plate washer. The plates are subsequently washed 6-12 times with PBST or TBS buffer. Scintillation fluid (50 μl/well) is then added, the plates are sealed and activity assessed by liquid scintillation spectrometry using a Perkin Elmer MicroBeta TriLux.
(§3) In the LCCA assays, kinase activity is measured as the percent ATP consumed following the kinase reaction using luciferase-luciferin-coupled chemiluminescence. Greiner 384-well white, clear bottom, medium-binding plates are used for LCCA. Briefly, the kinase reaction is initiated by mixing compounds, ATP and kinase in a 20 uL volume. The mixture is incubated at ambient temperature for 2-4 hrs. At the end of the kinase reaction, a 20 uL luciferase-luciferin mix is added and the chemiluminescent signal is read using a Wallac Victor^2 reader. The luciferase-luciferin mix consists of 50 mM HEPES, pH 7.8, 8.5 ug/mL oxalic acid (pH 7.8), 5 (or 50) mM DTT, 0.4% Triton X-100, 0.25 mg/mL coenzyme A, 63 uM AMP, 28 ug/mL luciferin and 40,000 units of light/mL luciferase. For the LCCA assays, total ATP consumption has been standardized to 25-45% and the IC50 values correlates well with those determined by radiometric assays.
(§4) AlphaScreen technology is a proximity assay which utilizes the increase in fluorescent signal occurring when donor and acceptor beads are close in proximity. Biotinylated poly(Glu,Tyr) 4:1 is used as the kinase substrate, in conjunction with streptavidin-coated donor beads and anti-phosphortyrosine antibody PY100-coated acceptor beads. Upon phosphorylation, the peptide substrate can bind to both donor and acceptor beads giving rise to an increase in fluorescence. Compounds, ATP, biotinylated poly(Glu, Tyr) and kinases are mixed in a volume of 20 uL for 1 hr at ambient temperature using Greiner 384-well white clear bottom medium binding plates. Following incubation a 10 uL solution containing […] AlphaScreen beads, 75 mM Hepes, pH 7.4, 300 mM NaCl, 120 mM EDTA, 0.3% BSA and 0.03% Tween-20 is added to each well. After 2-16 hr incubation of the beads, plates are read in a Perkin Elmer AlphaQuest reader. The IC50 values correlates well with those of radiometric assays.

Another assay has as its target T1, EphB4 (Homo sapiens, UniProt P54760).
T1 sequence (P54760 16-987): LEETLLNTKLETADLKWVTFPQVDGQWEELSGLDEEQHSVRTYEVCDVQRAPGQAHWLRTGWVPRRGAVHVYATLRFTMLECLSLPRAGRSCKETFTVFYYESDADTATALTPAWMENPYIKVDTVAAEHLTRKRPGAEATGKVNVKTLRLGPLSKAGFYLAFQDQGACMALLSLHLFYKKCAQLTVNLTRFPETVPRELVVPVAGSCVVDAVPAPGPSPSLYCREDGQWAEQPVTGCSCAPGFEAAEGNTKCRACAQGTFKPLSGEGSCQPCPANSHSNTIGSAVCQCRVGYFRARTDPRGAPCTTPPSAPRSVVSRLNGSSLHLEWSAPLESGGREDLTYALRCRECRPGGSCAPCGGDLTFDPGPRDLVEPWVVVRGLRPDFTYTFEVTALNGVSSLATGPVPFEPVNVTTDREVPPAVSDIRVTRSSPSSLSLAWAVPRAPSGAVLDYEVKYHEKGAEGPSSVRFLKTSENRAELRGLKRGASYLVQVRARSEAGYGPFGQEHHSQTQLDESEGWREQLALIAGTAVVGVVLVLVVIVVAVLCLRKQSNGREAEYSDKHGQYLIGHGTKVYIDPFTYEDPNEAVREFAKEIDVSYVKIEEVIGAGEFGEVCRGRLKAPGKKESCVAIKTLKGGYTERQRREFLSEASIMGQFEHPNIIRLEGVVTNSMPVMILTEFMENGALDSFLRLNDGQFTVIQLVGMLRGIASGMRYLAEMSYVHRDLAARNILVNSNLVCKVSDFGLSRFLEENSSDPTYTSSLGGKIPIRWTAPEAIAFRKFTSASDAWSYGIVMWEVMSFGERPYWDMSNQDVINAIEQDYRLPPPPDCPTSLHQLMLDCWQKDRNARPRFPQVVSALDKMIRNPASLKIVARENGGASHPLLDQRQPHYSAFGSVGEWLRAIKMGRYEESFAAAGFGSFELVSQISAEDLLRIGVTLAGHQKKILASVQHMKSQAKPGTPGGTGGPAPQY
Description: EphB4 kinase inhibition assay. Type of assay: biochemical. As for the experimental part:
as §1, §2, §3, §4

The target of a further assay is T2, flt-3 (Homo sapiens, UniProt P36888).
T2 construct: baculovirus expressed human Flt-3 kinase domain R571-S993
T2 sequence (P36888 571-993): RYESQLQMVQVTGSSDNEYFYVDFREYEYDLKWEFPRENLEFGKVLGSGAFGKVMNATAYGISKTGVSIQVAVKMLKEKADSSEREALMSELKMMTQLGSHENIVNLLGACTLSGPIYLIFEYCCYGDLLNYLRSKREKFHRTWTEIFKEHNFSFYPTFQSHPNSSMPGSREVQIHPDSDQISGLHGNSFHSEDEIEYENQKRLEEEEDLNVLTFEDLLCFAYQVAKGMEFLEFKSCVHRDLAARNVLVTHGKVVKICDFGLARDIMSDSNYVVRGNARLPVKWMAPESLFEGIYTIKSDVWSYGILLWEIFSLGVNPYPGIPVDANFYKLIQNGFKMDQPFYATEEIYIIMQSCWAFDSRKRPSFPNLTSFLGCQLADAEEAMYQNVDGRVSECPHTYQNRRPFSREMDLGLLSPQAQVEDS
Nature of the assay: flt-3 Luciferase-Coupled Chemiluminescent Kinase assay (LCCA). Type of assay: biochemical. Summed up:
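Baculovirus-expressed human Flt-3 kinase domain (R571-S993, 5 nM) was reacted with 5 μM ATP and 3 μM poly-EY in Tris pH 7.5 buffer with MgCl2/MnCl2 for 3 h at ambient temperature. Remaining ATP was read by luciferase-luciferin chemiluminescence, with ATP consumption standardized to 25-45%, for IC50.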

For the next assay, the target named is c-Kit (Homo sapiens, UniProt P10721). Nature of the assay: c-Kit biochemical assay (AlphaScreen). In short, it runs like this:
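Kinase, compound, ATP and biotinylated poly(Glu,Tyr) 4:1 reacted 1 hr at ambient temperature; quenched with EDTA buffer (pH 7.4) containing streptavidin donor and anti-phosphotyrosine PY100 acceptor beads, incubated 16 hr, then AlphaScreen signal read to give IC50.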

The structures appear in SMILES notation. Some results are limits rather than exact numbers.

Chain of EGFR (P00533 25-1210, species assumed): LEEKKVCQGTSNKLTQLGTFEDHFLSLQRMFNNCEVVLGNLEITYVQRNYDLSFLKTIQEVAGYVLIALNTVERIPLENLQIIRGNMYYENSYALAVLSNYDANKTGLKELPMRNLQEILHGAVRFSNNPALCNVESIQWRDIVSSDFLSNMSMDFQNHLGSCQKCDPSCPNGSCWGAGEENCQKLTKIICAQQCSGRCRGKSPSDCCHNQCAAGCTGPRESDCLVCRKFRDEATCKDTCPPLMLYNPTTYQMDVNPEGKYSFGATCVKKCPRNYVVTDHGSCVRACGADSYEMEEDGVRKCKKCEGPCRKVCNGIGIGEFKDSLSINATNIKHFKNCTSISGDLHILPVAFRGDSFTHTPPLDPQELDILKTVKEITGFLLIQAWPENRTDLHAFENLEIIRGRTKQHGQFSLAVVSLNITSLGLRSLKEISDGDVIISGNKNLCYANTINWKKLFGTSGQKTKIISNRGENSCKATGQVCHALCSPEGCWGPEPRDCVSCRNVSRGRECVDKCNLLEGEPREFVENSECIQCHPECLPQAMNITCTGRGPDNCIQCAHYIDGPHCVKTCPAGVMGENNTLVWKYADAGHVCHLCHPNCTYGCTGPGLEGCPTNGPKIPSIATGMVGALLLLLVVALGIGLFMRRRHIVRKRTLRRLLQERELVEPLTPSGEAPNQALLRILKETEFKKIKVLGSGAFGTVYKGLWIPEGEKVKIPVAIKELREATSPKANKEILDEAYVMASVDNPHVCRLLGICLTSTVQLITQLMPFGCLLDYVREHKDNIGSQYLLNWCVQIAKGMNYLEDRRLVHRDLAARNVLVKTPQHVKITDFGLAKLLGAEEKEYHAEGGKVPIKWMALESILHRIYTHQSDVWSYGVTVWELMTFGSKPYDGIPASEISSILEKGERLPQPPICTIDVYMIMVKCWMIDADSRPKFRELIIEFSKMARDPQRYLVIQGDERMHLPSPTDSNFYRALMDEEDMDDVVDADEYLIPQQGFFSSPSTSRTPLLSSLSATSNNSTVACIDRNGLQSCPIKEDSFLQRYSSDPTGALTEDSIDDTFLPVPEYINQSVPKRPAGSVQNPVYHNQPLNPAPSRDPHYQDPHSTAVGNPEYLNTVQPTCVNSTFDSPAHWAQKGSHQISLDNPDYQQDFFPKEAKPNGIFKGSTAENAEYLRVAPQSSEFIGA
Chain of c-Kit (P10721 26-976): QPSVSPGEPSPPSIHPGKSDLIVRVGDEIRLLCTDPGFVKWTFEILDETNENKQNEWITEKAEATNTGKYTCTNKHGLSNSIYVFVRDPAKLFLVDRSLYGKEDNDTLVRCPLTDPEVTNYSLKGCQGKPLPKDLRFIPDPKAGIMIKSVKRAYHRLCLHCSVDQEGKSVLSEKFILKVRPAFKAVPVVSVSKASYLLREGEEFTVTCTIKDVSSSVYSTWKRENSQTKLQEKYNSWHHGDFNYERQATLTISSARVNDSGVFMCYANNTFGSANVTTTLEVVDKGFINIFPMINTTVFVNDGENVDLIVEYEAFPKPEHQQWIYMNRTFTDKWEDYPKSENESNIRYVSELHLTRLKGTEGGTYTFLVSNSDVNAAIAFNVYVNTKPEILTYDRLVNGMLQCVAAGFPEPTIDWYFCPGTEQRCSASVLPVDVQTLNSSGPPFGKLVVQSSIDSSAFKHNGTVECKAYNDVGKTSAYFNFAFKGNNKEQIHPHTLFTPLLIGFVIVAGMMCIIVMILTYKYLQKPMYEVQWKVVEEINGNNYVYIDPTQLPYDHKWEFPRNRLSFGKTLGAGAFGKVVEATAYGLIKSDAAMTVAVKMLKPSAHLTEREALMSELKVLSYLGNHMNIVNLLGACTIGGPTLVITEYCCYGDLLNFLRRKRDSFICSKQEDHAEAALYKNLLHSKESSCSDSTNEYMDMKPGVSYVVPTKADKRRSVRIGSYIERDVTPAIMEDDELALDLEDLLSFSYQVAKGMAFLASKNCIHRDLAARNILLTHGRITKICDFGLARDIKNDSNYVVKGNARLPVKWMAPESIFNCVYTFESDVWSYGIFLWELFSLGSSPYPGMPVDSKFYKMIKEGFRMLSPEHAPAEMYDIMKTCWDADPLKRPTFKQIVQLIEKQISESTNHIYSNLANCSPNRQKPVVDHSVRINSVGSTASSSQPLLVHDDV

Consider `CN1CCN(c2ccc3[nH]c(-c4cc(-c5ccc(NC(=O)Nc6cc(F)cc(F)c6)cc5)[nH]n4)nc3c2)CC1` [Entry 19, N-(3,5-difluorophenyl)-N′-(4-{3-[5-(4-methylpiperazin-1-yl)-1H-benzimidazol-2-yl]-1H-pyrazol-5-yl}phenyl)urea], for which the IC50 at EGFR is > 5000 nM; against EphB4 it was > 5000 nM; on flt-3, < 50 nM; against c-Kit, < 50 nM.

Consider `COc1cccc(NC(=O)Nc2ccc(-c3cc(-c4nc5cc(N6CCN(C)CC6)ccc5[nH]4)n[nH]3)cc2)c1` [Entry 20, N-[3-(methyloxy)phenyl]-N′-(4-{3-[5-(4-methylpiperazin-1-yl)-1H-benzimidazol-2-yl]-1H-pyrazol-5-yl}phenyl)urea], for which the IC50 at EGFR is > 5000 nM; against EphB4, > 5000 nM; at flt-3, < 50 nM; against c-Kit, < 50 nM.

Take `CCN1CCN(c2ccc(-c3cc(-c4ccc(NC(=O)Nc5ccc(Cl)c(C(F)(F)F)c5)cc4)[nH]n3)cc2)CC1` [Entry 21, N-[4-chloro-3-(trifluoromethyl)phenyl]-N′-(4-{3-[4-(4-ethylpiperazin-1-yl)phenyl]-1H-pyrazol-5-yl}phenyl)urea]: the IC50 is > 5000 nM against EGFR, > 5000 nM at EphB4, < 50 nM against flt-3 and < 50 nM at c-Kit.

Take `CN1CCN(c2ccc3[nH]c(-c4cc(-c5ccc(NC(=O)Nc6cccc(F)c6)cc5)[nH]n4)nc3c2)CC1` [Entry 22, N-(3-fluorophenyl)-N′-(4-{3-[5-(4-methylpiperazin-1-yl)-1H-benzimidazol-2-yl]-1H-pyrazol-5-yl}phenyl)urea]: the IC50 on EGFR is > 5000 nM; against EphB4, > 5000 nM; against flt-3 it was < 50 nM; against c-Kit it was < 50 nM.

For `CN1CCN(c2ccc3[nH]c(-c4cc(-c5ccc(NC(=O)Nc6ccc(F)cc6)cc5)[nH]n4)nc3c2)CC1` [Entry 23, N-(4-fluorophenyl)-N′-(4-{3-[5-(4-methylpiperazin-1-yl)-1H-benzimidazol-2-yl]-1H-pyrazol-5-yl}phenyl)urea], the IC50 against EGFR is > 5000 nM; on EphB4 it was > 5000 nM; against flt-3, < 50 nM; against c-Kit it was < 50 nM.

In the case of `CN1CCN(c2ccc3[nH]c(-c4cc(-c5ccc(NC(=O)Nc6ccc(F)c(F)c6)cc5)[nH]n4)nc3c2)CC1` [Entry 25, N-(3,4-difluorophenyl)-N′-(4-{3-[5-(4-methylpiperazin-1-yl)-1H-benzimidazol-2-yl]-1H-pyrazol-5-yl}phenyl)urea], the IC50 is > 5000 nM on EGFR, > 5000 nM at EphB4, < 50 nM against flt-3 and < 50 nM at c-Kit.

Take `CCN1CCN(c2ccc3nc(-c4cc(-c5ccc(NC(=O)Nc6ccc(F)cc6F)cc5)[nH]n4)[nH]c3c2)CC1` [Entry 29, N-(2,4-difluorophenyl)-N′-(4-{3-[6-(4-ethylpiperazin-1-yl)-1H-benzimidazol-2-yl]-1H-pyrazol-5-yl}phenyl)urea]: the IC50 is > 5000 nM at EGFR, > 5000 nM at EphB4, < 50 nM against flt-3 and < 50 nM at c-Kit.

Turning to `O=C(Nc1ccc(-c2cc(-c3nc4ccccc4[nH]3)n[nH]2)cc1)Nc1ccc(Cl)c(C(F)(F)F)c1` [Entry 30, N-{4-[3-(1H-benzimidazol-2-yl)-1H-pyrazol-5-yl]phenyl}-N′-[4-chloro-3-(trifluoromethyl)phenyl]urea], the IC50 against EGFR is > 5000 nM; against EphB4, > 5000 nM; on flt-3, < 50 nM; at c-Kit it was < 50 nM.

For `O=C(Nc1ccc(-c2cc(-c3nc4ccccc4[nH]3)n[nH]2)cc1)Nc1cc(C(F)(F)F)ccc1F` [Entry 31, N-{4-[3-(1H-benzimidazol-2-yl)-1H-pyrazol-5-yl]phenyl}-N′-[2-fluoro-5-(trifluoromethyl)phenyl]urea], the concentration for half-maximal inhibition (IC50) at EGFR was > 5000 nM; against EphB4, > 5000 nM; on flt-3, < 50 nM; at c-Kit, < 50 nM.

As for `CN1CCN(c2ccc3[nH]c(-c4cc(-c5ccc(NC(=O)Nc6ccc(F)cc6F)cc5)[nH]n4)nc3c2)CC1` [Entry 32, N-(2,4-difluorophenyl)-N′-(4-{3-[5-(4-methylpiperazin-1-yl)-1H-benzimidazol-2-yl]-1H-pyrazol-5-yl}phenyl)urea], the IC50 at EGFR is > 5000 nM; on EphB4, > 5000 nM; at flt-3 it was < 50 nM; against c-Kit, < 50 nM.

Regarding `CN1CCN(c2ccc3[nH]c(-c4cc(-c5ccc(NC(=O)Nc6cc(C(F)(F)F)cc(C(F)(F)F)c6)cc5)[nH]n4)nc3c2)CC1` [Entry 34, N-[3,5-bis(trifluoromethyl)phenyl]-N′-(4-{3-[5-(4-methylpiperazin-1-yl)-1H-benzimidazol-2-yl]-1H-pyrazol-5-yl}phenyl)urea], the IC50 is > 5000 nM against EGFR, 500 to 5000 nM against EphB4, < 50 nM at flt-3 and < 50 nM on c-Kit.

Usually IC50 stands for the concentration that inhibits the measured activity by half. A lower IC50 goes with inhibition by little substance.

(Values after patent US8710038B2, “Pyrazole kinase modulators and methods of use” (Exelixis, Inc., priority 2004, dated 2014).)
